Source: the NIST ThermoML archive (doi:10.1021/je901043q)
Numbers after ± are expanded uncertainties.

Assay: xn = mol fraction of the nth substance listed
Settings: 101 kPa, Liquid

CCCCn1cc[n+](C)c1.N#C[S-] [1-butyl-3-methylimidazolium thiocyanate] + CCCCCCCO
Settings | mass density [kg/m3] | viscosity [mPa·s]
298.15 K, x1 = 0.0806 | 845.64 ± 0.42 | 7.319 ± 0.21
298.15 K, x1 = 0.14 | 864.24 ± 0.41 | 8.422 ± 0.24
298.15 K, x1 = 0.2203 | 888.14 ± 0.4 | 10.16 ± 0.29
298.15 K, x1 = 0.3006 | 910.91 ± 0.4 | 12.31 ± 0.34
298.15 K, x1 = 0.3997 | 937.73 ± 0.41 | 15.5 ± 0.42
298.15 K, x1 = 0.4903 | 960.98 ± 0.43 | 18.92 ± 0.51
298.15 K, x1 = 0.5703 | 980.45 ± 0.45 | 22.22 ± 0.6
298.15 K, x1 = 0.6949 | 1008.83 ± 0.54 | 28.65 ± 0.77
298.15 K, x1 = 0.7981 | 1031.04 ± 0.69 | 34.6 ± 0.93
298.15 K, x1 = 0.8852 | 1048.62 ± 0.83 | 39.81 ± 1.1
298.15 K, x1 = 0.9793 | 1066.13 ± 1 | 47.21 ± 1.3
298.15 K, x1 = 1 | 1069.79 ± 1 | 51.74 ± 0.55
308.15 K, x1 = 0.0806 | 838.75 ± 0.43 | 5.395 ± 0.17
308.15 K, x1 = 0.14 | 857.45 ± 0.41 | 6.213 ± 0.19
308.15 K, x1 = 0.2203 | 881.49 ± 0.4 | 7.479 ± 0.22
308.15 K, x1 = 0.3006 | 904.36 ± 0.4 | 9.061 ± 0.26
308.15 K, x1 = 0.3997 | 931.34 ± 0.41 | 11.31 ± 0.32
308.15 K, x1 = 0.4903 | 954.7 ± 0.43 | 13.59 ± 0.38
308.15 K, x1 = 0.5703 | 974.26 ± 0.45 | 15.73 ± 0.43
308.15 K, x1 = 0.6949 | 1002.79 ± 0.54 | 19.86 ± 0.54
308.15 K, x1 = 0.7981 | 1025.06 ± 0.68 | 23.67 ± 0.65
308.15 K, x1 = 0.8852 | 1042.69 ± 0.82 | 26.77 ± 0.74
308.15 K, x1 = 0.9793 | 1060.22 ± 1 | 31.2 ± 0.86
308.15 K, x1 = 1 | 1063.89 ± 1 | 34.87 ± 0.96
318.15 K, x1 = 0.0806 | 831.82 ± 0.43 | 4.085 ± 0.13
318.15 K, x1 = 0.14 | 850.63 ± 0.41 | 4.725 ± 0.15
318.15 K, x1 = 0.2203 | 874.82 ± 0.41 | 5.654 ± 0.17
318.15 K, x1 = 0.3006 | 897.84 ± 0.4 | 6.884 ± 0.2
318.15 K, x1 = 0.3997 | 924.97 ± 0.41 | 8.55 ± 0.25
318.15 K, x1 = 0.4903 | 948.46 ± 0.43 | 10.19 ± 0.29
318.15 K, x1 = 0.5703 | 968.12 ± 0.46 | 11.67 ± 0.33
318.15 K, x1 = 0.6949 | 996.76 ± 0.53 | 14.49 ± 0.4
318.15 K, x1 = 0.7981 | 1019.11 ± 0.67 | 17.02 ± 0.47
318.15 K, x1 = 0.8852 | 1036.79 ± 0.81 | 19.03 ± 0.53
318.15 K, x1 = 0.9793 | 1054.36 ± 0.98 | 21.9 ± 0.62
318.15 K, x1 = 1 | 1058.02 ± 1 | 24.19 ± 0.68
328.15 K, x1 = 0.0806 | 824.81 ± 0.44 | 3.166 ± 0.11
328.15 K, x1 = 0.14 | 843.79 ± 0.42 | 3.685 ± 0.12
328.15 K, x1 = 0.2203 | 868.14 ± 0.41 | 4.369 ± 0.14
328.15 K, x1 = 0.3006 | 891.32 ± 0.41 | 5.306 ± 0.16
328.15 K, x1 = 0.3997 | 918.62 ± 0.41 | 6.634 ± 0.2
328.15 K, x1 = 0.4903 | 942.26 ± 0.43 | 7.875 ± 0.23
328.15 K, x1 = 0.5703 | 962.02 ± 0.46 | 8.926 ± 0.26
328.15 K, x1 = 0.6949 | 990.79 ± 0.53 | 11.02 ± 0.32
328.15 K, x1 = 0.7981 | 1013.22 ± 0.66 | 12.79 ± 0.36
328.15 K, x1 = 0.8852 | 1030.94 ± 0.8 | 14.2 ± 0.4
328.15 K, x1 = 0.9793 | 1048.56 ± 0.97 | 16.16 ± 0.46
328.15 K, x1 = 1 | 1052.19 ± 1 | 16.7 ± 0.48
338.15 K, x1 = 0.0806 | 817.69 ± 0.44 | 2.508 ± 0.094
338.15 K, x1 = 0.14 | 836.85 ± 0.42 | 2.935 ± 0.1
338.15 K, x1 = 0.2203 | 861.43 ± 0.41 | 3.47 ± 0.12
338.15 K, x1 = 0.3006 | 884.79 ± 0.41 | 4.186 ± 0.14
338.15 K, x1 = 0.3997 | 912.28 ± 0.42 | 5.262 ± 0.16
338.15 K, x1 = 0.4903 | 936.05 ± 0.43 | 6.24 ± 0.19
338.15 K, x1 = 0.5703 | 955.92 ± 0.46 | 7.057 ± 0.21
338.15 K, x1 = 0.6949 | 984.85 ± 0.53 | 8.62 ± 0.25
338.15 K, x1 = 0.7981 | 1007.36 ± 0.65 | 9.943 ± 0.29
338.15 K, x1 = 0.8852 | 1025.11 ± 0.79 | 10.97 ± 0.32
338.15 K, x1 = 0.9793 | 1042.8 ± 0.96 | 12.38 ± 0.36
338.15 K, x1 = 1 | 1046.43 ± 0.98 | 12.73 ± 0.37
348.15 K, x1 = 0.0806 | 810.46 ± 0.45 | 2.022 ± 0.081
348.15 K, x1 = 0.14 | 829.85 ± 0.43 | 2.383 ± 0.09
348.15 K, x1 = 0.2203 | 854.69 ± 0.42 | 2.837 ± 0.1
348.15 K, x1 = 0.3006 | 878.24 ± 0.41 | 3.403 ± 0.12
348.15 K, x1 = 0.3997 | 905.95 ± 0.42 | 4.222 ± 0.14
348.15 K, x1 = 0.4903 | 929.89 ± 0.44 | 5.029 ± 0.16
348.15 K, x1 = 0.5703 | 949.88 ± 0.46 | 5.663 ± 0.17
348.15 K, x1 = 0.6949 | 978.95 ± 0.53 | 6.884 ± 0.21
348.15 K, x1 = 0.7981 | 1001.53 ± 0.64 | 7.93 ± 0.24
348.15 K, x1 = 0.8852 | 1019.34 ± 0.77 | 8.707 ± 0.26
348.15 K, x1 = 0.9793 | 1037.06 ± 0.94 | 9.802 ± 0.29
348.15 K, x1 = 1 | 1040.7 ± 0.97 | 9.98 ± 0.3
